Our source for the Ki values is patent US9255101B2 (BIOPROJECT, priority 2012, dated 2016).

Molecules are shown by their SMILES. Where a name gives a salt, the structure may show the parent alone.

The target of this experiment is human H4 receptor (Homo sapiens, UniProt Q9H3N8). Description: biochemical.
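Further: radioligand displacement of a [3H]-labelled ligand from membranes of CHO cells stably expressing human H4 receptor, bound radioactivity counted on filters by liquid scintillation.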

human H4 receptor, sequence (Q9H3N8 whole entry): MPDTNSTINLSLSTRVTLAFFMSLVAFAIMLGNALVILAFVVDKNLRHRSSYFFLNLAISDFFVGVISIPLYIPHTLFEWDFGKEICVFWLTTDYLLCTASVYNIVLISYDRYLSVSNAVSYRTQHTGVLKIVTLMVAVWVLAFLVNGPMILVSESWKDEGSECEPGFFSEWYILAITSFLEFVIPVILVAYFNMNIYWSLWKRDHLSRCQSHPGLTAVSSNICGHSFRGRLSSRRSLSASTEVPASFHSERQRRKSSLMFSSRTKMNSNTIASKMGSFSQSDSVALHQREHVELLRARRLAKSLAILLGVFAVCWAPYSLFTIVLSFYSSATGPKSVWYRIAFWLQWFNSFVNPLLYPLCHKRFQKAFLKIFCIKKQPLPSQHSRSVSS

`Cc1nc2n(c1-c1ccccc1)CCc1ccccc1C2OC1CCN(C)CC1` (stereo not shown) [Example 123, 2-methyl-4-(1-methylpiperidin-4-yloxy)-1-phenyl-9,10-dihydro-4H-3,10a-diaza-benzo[f]azulene oxalate] showed a Ki of less than 300 nM.

As for `CN1CCC(OC2c3ccccc3CCn3cc(C=CC4CCCCC4)nc32)CC1` (stereo not shown) [Example 59, 2-(2-cyclohexyl-vinyl)-4-(1-methylpiperidin-4-yloxy)-9,10-dihydro-4H-3,10a-diaza-benzo[f]azulene], the Ki is less than 300 nM.

In turn, `CN1CCC(OC2c3ccccc3CCn3cc(-c4ccc(CN5CCOC5=O)cc4)nc32)CC1` (stereo not shown) [Example 181, 3-{4-[4-(1-methylpiperidin-4-yloxy)-9,10-dihydro-4H-3,10a-diaza-benzo[f]azulen-2-yl]-benzyl}-oxazolidin-2-one] returned a Ki of less than 300 nM.

Compound `Cc1c(-c2ccccn2)nc2n1CCc1ccccc1C2OC1CCN(C)CC1` (stereo not shown) [Example 251, 1-methyl-4-(1-methylpiperidin-4-yloxy)-2-pyridin-2-yl-9,10-dihydro-4H-3,10a-diaza-benzo[f]azulene] registered a Ki of less than 300 nM.

`Cc1ccc(-c2cn3c(n2)C(OC2CCN(C)CC2)c2ccccc2CC3)cn1` (stereo not shown) [Example 39, 4-(1-methylpiperidin-4-yloxy)-2-(6-methylpyridin-3-yl)-9,10-dihydro-4H-3,10a-diaza-benzo[f]azulene oxalate]: the Ki is less than 1000 nM.

Compound `CCOC(=O)c1c(C)nc2n1CCc1ccccc1C2OC1CCN(C)CC1` (stereo not shown) [Example 116, 2-methyl-4-(1-methylpiperidin-4-yloxy)-9,10-dihydro-4H-3,10a-diazabenzo[f]azulene-1-carboxylic acid ethyl ester] came in with a Ki of less than 300 nM.

Consider `Cc1cc(C(F)(F)F)ccc1-c1cn2c(n1)C(OC1CCN(C)CC1)c1ccccc1CC2` (stereo not shown) [Example 55, 4-(1-methylpiperidin-4-yloxy)-2-(2-methyl-4-trifluoromethyl-phenyl)-9,10-dihydro-4H-3,10a-diaza-benzo[f]azulene], for which the Ki was less than 300 nM.

As to `COC(=O)CSc1ccc(-c2nc3n(c2C)CCc2ccccc2C3OC2CCN(C)CC2)cc1` (stereo not shown) [Example 165, {4-[1-methyl-4-(1-methylpiperidin-4-yloxy)-9,10-dihydro-4H-3,10a-diaza-benzo[f]azulen-2-yl]-phenylsulfanyl}-acetic acid methyl ester oxalate], the Ki was less than 30 nM.

As to `CN1CCC(OC2c3ccccc3CCn3c2nc(-c2ccccc2Cl)c3C#N)CC1` (stereo not shown) [Example 272, 2-(2-chlorophenyl)-4-(1-methyl-piperidin-4-yloxy)-9,10-dihydro-4H-3,10a-diaza-benzo[f]azulene-1-carbonitrile oxalate], the Ki is less than 30 nM.

Take `Cc1c(-c2ccc(N)cc2)nc2n1CCc1ccccc1C2OC1CCN(C)CC1` (stereo not shown) [Example 173, 4-[1-methyl-4-(1-methylpiperidin-4-yloxy)-9,10-dihydro-4H-3,10a-diaza-benzo[f]azulen-2-yl]-phenylamine]: the Ki was less than 300 nM.

Regarding `Cc1ccccc1-c1cn2c(n1)C(OC1CCN(C)CC1)c1ccccc1CC2` (stereo not shown) [Example 8, 4-(1-methyl-piperidin-4-yloxy)-2-o-tolyl-9,10-dihydro-4H-3,10a-diaza-benzo[f]azulene], the Ki is less than 300 nM.

As to `CN1CCC(OC2c3ccccc3CCn3cc(-c4ccc(CO)cc4)nc32)CC1` (stereo not shown) [Example 18, {4-[4-(1-methylpiperidin-4-yloxy)-9,10-dihydro-4H-3,10a-diaza-benzo[f]azulen-2-yl]-phenyl}-methanol], the Ki was less than 1000 nM.

`Cc1c(-c2ccc(N3C(=O)OCC3Cc3ccccc3)cc2)nc2n1CCc1ccccc1C2OC1CCN(C)CC1` (stereo not shown) [Example 176, 4-benzyl-3-{4-[1-methyl-4-(1-methylpiperidin-4-yloxy)-9,10-dihydro-4H-3,10a-diaza-benzo[f]azulen-2-yl]-phenyl}-oxazolidin-2-one] returned an inhibition constant Ki of less than 30 nM.

`CN1CCC(OC2c3ccccc3CCn3cc(CCC4CCCCC4)nc32)CC1` (stereo not shown) [Example 95, 2-(2-cyclohexylethyl)-4-(1-methylpiperidin-4-yloxy)-9,10-dihydro-4H-3,10a-diaza-benzo[f]azulene oxalate]: the inhibition constant (Ki) was less than 30 nM.

Take `Cc1c(-c2ccncc2)nc2n1CCc1ccccc1C2OC1CCN(C)CC1` (stereo not shown) [Example 250, 1-methyl-4-(1-methylpiperidin-4-yloxy)-2-pyridin-4-yl-9,10-dihydro-4H-3,10a-diaza-benzo[f]azulene]: the Ki is less than 1000 nM.

Consider `CN1CCC(OC2c3cccc(Cl)c3CCn3cc(I)nc32)CC1` (stereo not shown) [Example 78, 8-chloro-2-iodo-4-(1-methylpiperidin-4-yloxy)-9,10-dihydro-4H-3,10a-diaza-benzo[f]azulene], for which the Ki was less than 300 nM.

`CN1CCC(OC2c3ccccc3CCn3cc(-c4ccc(Cl)cc4Cl)nc32)CC1` (stereo not shown) [Example 71, 2-(2,4-dichlorophenyl)-4-(1-methylpiperidin-4-yloxy)-9,10-dihydro-4H-3,10a-diaza-benzo[f]azulene oxalate] displayed a Ki of less than 30 nM.

Compound `CC(C)Cc1cn2c(n1)C(OC1CCN(C)CC1)c1ccccc1CC2` (stereo not shown) [Example 109, 2-isobutyl-4-(1-methylpiperidin-4-yloxy)-9,10-dihydro-4H-3,10a-diaza-benzo[f]azulene oxalate] displayed a Ki of less than 300 nM.

As to `Cc1c(-c2ccc(C(=O)NCCO)cc2)nc2n1CCc1ccccc1C2OC1CCN(C)CC1` (stereo not shown) [Example 217, N-(2-hydroxyethyl)-4-[1-methyl-4-(1-methylpiperidin-4-yloxy)-9,10-dihydro-4H-3,10a-diaza-benzo[f]azulen-2-yl]-benzamide], the Ki is less than 300 nM.

Take `CN1CCC(OC2c3ccccc3CCn3cc(C=CCOCc4ccccc4)nc32)CC1` (stereo not shown) [Example 124, 2-(3-benzyloxypropenyl)-4-(1-methylpiperidin-4-yloxy)-9,10-dihydro-4H-3,10a-diaza-benzo[f]azulene oxalate]: the Ki was less than 300 nM.

Regarding `CN1CCC(OC2c3ccccc3CCn3cc(C=CCCCc4ccccc4)nc32)CC1` (stereo not shown) [Example 89, 4-(1-methylpiperidin-4-yloxy)-2-(5-phenylpent-1-enyl)-9,10-dihydro-4H-3,10a-diaza-benzo[f]azulene], the Ki was less than 30 nM.

`CNc1ccc(-c2cn3c(n2)C(OC2CCN(C)CC2)c2ccccc2CC3)cc1` (stereo not shown) [Example 100, methyl-{4-[4-(1-methylpiperidin-4-yloxy)-9,10-dihydro-4H-3,10a-diaza-benzo[f]azulen-2-yl]-phenyl}-amine oxalate] displayed a Ki of less than 1000 nM.

`CN1CCC(OC2c3ccccc3CCn3cc(-c4ccc(N(C)C)cc4)nc32)CC1` (stereo not shown) [Example 35, dimethyl-{4-[4-(1-methylpiperidin-4-yloxy)-9,10-dihydro-4H-3,10a-diaza-benzo[f]azulen-2-yl]-phenyl}-amine oxalate] showed a Ki of less than 1000 nM.

Compound `CN1CCC(OC2c3cccc(-c4ccccc4)c3CCn3cc(-c4ccccc4)nc32)CC1` (stereo not shown) [Example 92, 4-(1-methylpiperidin-4-yloxy)-2,8-diphenyl-9,10-dihydro-4H-3,10a-diaza-benzo[f]azulene] yielded a Ki of less than 300 nM.

The compound `CN1CCC(OC2c3cccc(F)c3CCn3cc(-c4ccccc4)nc32)CC1` (stereo not shown) [Example 107, 8-fluoro-4-(1-methylpiperidin-4-yloxy)-2-phenyl-9,10-dihydro-4H-3,10a-diaza-benzo[f]azulene] registered a Ki of less than 1000 nM.
